Test results: patent US8273890B2 (4SC AG, priority 2007, dated 2012)

These compounds were tested against T1, recombinant Plk1 protein (Homo sapiens, UniProt P53350) (assay: Plk1 kinase activity inhibition assay (33P-ATP, alpha casein substrate, flash plates)). Details: enzymatic assay, 100 nM Li-ATP, 80 minutes at 30° C.
T1 construct: histidine tag (N); made in house; host or cells: SF9 insect cells
T1 sequence (P53350 whole entry): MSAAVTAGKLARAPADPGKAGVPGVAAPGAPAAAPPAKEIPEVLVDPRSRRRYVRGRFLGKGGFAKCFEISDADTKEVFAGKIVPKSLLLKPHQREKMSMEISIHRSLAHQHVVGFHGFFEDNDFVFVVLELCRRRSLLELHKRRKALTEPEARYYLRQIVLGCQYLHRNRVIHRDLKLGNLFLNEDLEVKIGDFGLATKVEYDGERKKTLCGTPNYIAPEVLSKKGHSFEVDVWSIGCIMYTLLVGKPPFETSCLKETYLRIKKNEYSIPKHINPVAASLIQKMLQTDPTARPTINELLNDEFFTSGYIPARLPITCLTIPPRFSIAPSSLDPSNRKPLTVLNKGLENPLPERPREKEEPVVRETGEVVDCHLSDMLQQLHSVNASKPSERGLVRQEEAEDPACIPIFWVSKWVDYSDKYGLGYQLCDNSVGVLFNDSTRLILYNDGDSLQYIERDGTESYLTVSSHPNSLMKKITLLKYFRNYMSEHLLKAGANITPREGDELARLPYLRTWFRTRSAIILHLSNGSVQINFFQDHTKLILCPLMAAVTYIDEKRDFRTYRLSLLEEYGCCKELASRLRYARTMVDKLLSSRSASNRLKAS
Type: biochemical
Procedure: The inhibition of Plk1 kinase activity can be measured using recombinant Plk1 protein expressed as an N-terminally histidine-tagged protein in SF9 insect cells and alpha casein as substrate. The Plk1 assay is run in 96 well plates by incubating 50 to 100 ng per well recombinant Plk1, 500 ng per well alpha casein (Sigma, # C-6780) as substrate, 10 μl of compound of invention (test compounds were dissolved as 20 mM solutions in dimethylsulfoxide (DMSO) and subsequently diluted), and 100 nM Li-ATP (including ^33P-ATP) in 100 μl of reaction buffer ([…] HEPES, pH 7.5; 3 mM MgCl2; 3 mM MnCl2; 3 μM Na-Orthovanadat; 1 mM DTT; 1 μg/ml PEG 8000) for 80 minutes at 30° C. The reactions are terminated by adding 100 μl stopping buffer (2% H3PO4 for 5 minutes) and are washed 3 times with washing solution (0.9% NaCl). Determining ^33P incorporated into the protein substrate alpha casein, the detection is based on the adhesion of the phosphorylated protein to the surface of scintillator-coated flash plates (Perkin Elmer, USA; #SMP-200). Phosphorylation of alpha casein is measured by counting the radioactivity bound to the plate for 60 sec. using a plate reader (Perkin Elmer, USA; Wallac Microbeta). By this method, the IC50 value of the Plk1 inhibition is determined as described above.
Compound `NC(=O)c1sc(-n2cnc3ccncc32)cc1OCc1ccccc1C(F)(F)F` [Example 3, 5-(3H-Imidazo[4,5-c]pyridin-3-yl)-3-{[2-(trifluoromethyl)benzyl]oxy}thio-phene-2-carboxamide] has an IC50 of 100 to 1000 nM.
Work on `COCCNC(=O)c1cc2c(cn1)ncn2-c1cc(OCc2ccccc2C(F)(F)F)c(C(N)=O)s1` [Example 4, 1-(5-Carbamoyl-4-{[2-(trifluoromethyl)benzyl]oxy}-2-thienyl)-N-(2-methoxyethyl)-1H-imidazo[4,5-c]pyridine-6-carboxamide] yielded an IC50 of 100 to 1000 nM.
`NC(=O)c1sc(-n2cnc3cnc(C(=O)NCCN4CCOCC4)cc32)cc1OCc1ccccc1C(F)(F)F` [Example 5, 1-(5-Carbamoyl-4-{[2-(trifluoromethyl)benzyl]oxy}-2-thienyl)-N-(2-morpholin-4-ylethyl)-1H-imidazo[4,5-c]pyridine-6-carboxamide] gave an IC50 of 100 to 1000 nM.
`CCN(CC)Cc1cc2c(cn1)ncn2-c1cc(OCc2ccccc2C(F)(F)F)c(C(N)=O)s1` [Example 6, 5-{6-[(Diethylamino)methyl]-1H-imidazo[4,5-c]pyridin-1-yl}-3-{[2-(trifluoromethyl)benzyl]oxy}thiophene-2-carboxamide] gave an IC50 of 100 to 1000 nM.
For `NC(=O)c1sc(-n2cnc3cnc(CNC4CC4)cc32)cc1OCc1ccccc1C(F)(F)F` [Example 7, 5-{6-[(Cyclopropylamino)methyl]-1H-imidazo[4,5-c]pyridin-1-yl}-3-{[2-(trifluoromethyl)benzyl]oxy}thiophene-2-carboxamide], the IC50 was 10 to 100 nM.
Compound `CN1CCN(Cc2cc3c(cn2)ncn3-c2cc(OCc3ccccc3C(F)(F)F)c(C(N)=O)s2)CC1` [Example 8, 5-{6-[(4-Methylpiperazin-1-yl)methyl]1H-imidazo[4,5-c]pyridin-1-yl}-3-{[2-(trifluoromethyl)benzyl]oxy}thiophene-2-carboxamide] has an IC50 of under 10 nM.
`NC(=O)c1sc(-n2cnc3cnc(CO)cc32)cc1OCc1ccccc1C(F)(F)F` [Example 9, 5-[6-(Hydroxymethyl)-1H-imidazo[4,5-c]pyridin-1-yl]-3-{[2-(trifluoromethyl)benzyl]oxy}thiophene-2-carboxamide] showed an IC50 of 10 to 100 nM.
`NC(=O)c1sc(-n2cnc3cc(CO)ncc32)cc1OCc1ccccc1C(F)(F)F` [Example 10, 5-[6-(Hydroxymethyl)-3H-imidazo[4,5-c]pyridin-3-yl]-3-{[2-(trifluoromethyl)benzyl]oxy}thiophene-2-carboxamide] was tested, and the IC50 was 100 to 1000 nM.
`CN(CCN1CCOCC1)C(=O)c1cc2c(cn1)ncn2-c1cc(OCc2ccccc2C(F)(F)F)c(C(N)=O)s1` [Example 11, 1-(5-Carbamoyl-4-{[2-(trifluoromethyl)benzyl]oxy}-2-thienyl)-N-methyl-N-(2-morpholin-4-ylethyl)-1H-imidazo[4,5-c]pyridine-6-carboxamide] was tested, and the IC50 was 1000 to 10000 nM.
`CC(Oc1cc(-n2cnc3ccncc32)sc1C(N)=O)c1ccccc1Cl` (stereo not shown) [Example 12, 3-[1-(2-Chlorophenyl)ethoxy]-5-(3H-imidazo[4,5-c]pyridin-3-yl)thio-phene-2-carboxamide] was tested, and the IC50 was under 10 nM.
With `CC(Oc1cc(-n2cnc3ccncc32)sc1C(N)=O)c1ccccc1C(F)(F)F` (stereo not shown) [Example 13, 5-(3H-Imidazo[4,5-c]pyridin-3-yl)-3-{1-[2-(trifluoromethyl)phenyl]ethoxy}thiophene-2-carboxamide] the IC50 was 10 to 100 nM.
`CC(Oc1cc(-n2cnc3cnccc32)sc1C(N)=O)c1ccccc1C(F)(F)F` (stereo not shown) [Example 14, 5-(1H-Imidazo[4,5-c]pyridin-1-yl)-3-{1-[2-(trifluoromethyl)phenyl]ethoxy}thiophene-2-carboxamide] showed an IC50 of 10 to 100 nM.
Compound `CC(Oc1cc(-n2cnc3cnccc32)sc1C(N)=O)c1ccccc1Cl` (stereo not shown) [Example 15, 3-[1-(2-Chlorophenyl)ethoxy]-5-(1H-imidazo[4,5-c]pyridin-1-yl)thio-phene-2-carboxamide] has an IC50 of 10 to 100 nM.
`COc1cc2c(cn1)ncn2-c1cc(OCc2ccccc2C(F)(F)F)c(C(N)=O)s1` [Example 16, 5-(6-Methoxy-1H-imidazo[4,5-c]pyridin-1-yl)-3-{[2-(trifluoromethyl)benzyl]oxy}thiophene-2-carboxamide] gave an IC50 of 10 to 100 nM.
`COc1cc2ncn(-c3cc(OCc4ccccc4C(F)(F)F)c(C(N)=O)s3)c2cn1` [Example 17, 5-(6-Methoxy-3H-imidazo[4,5-c]pyridin-3-yl)-3-{[2-(trifluoromethyl)benzyl]oxy}thiophene-2-carboxamide] gave an IC50 of 10 to 100 nM.
Compound `COc1cc2c(cn1)ncn2-c1cc(OCc2ccccc2C(F)(F)F)c(C(=O)O)s1` [Example 18, 5-(6-Methoxy-1H-imidazo[4,5-c]pyridin-1-yl)-3-{[2-(trifluoromethyl)benzyl]oxy}thiophene-2-carboxylic acid] has an IC50 of 10 to 100 nM.
`NC(=O)c1sc(-n2cnc3cccnc32)cc1OCc1ccccc1C(F)(F)F` [Example 19, 5-(3H-Imidazo[4,5-b]pyridin-3-yl)-3-{[2-(trifluoromethyl)benzyl]oxy}thio-phene-2-carboxamide] was tested, and the IC50 was 10 to 100 nM.
Work on `NC(=O)c1sc(-n2cnc3ncccc32)cc1OCc1ccccc1C(F)(F)F` [Example 20, 5-(1H-Imidazo[4,5-b]pyridin-1-yl)-3-{[2-(trifluoromethyl)benzyl]oxy}thio-phene-2-carboxamide] yielded an IC50 of 100 to 1000 nM.
In the case of `COc1cc2c(ncn2-c2cc(OCc3ccccc3C(F)(F)F)c(C(N)=O)s2)nc1OC` [Example 21A, 5-(5,6-Dimethoxy-1H-imidazo[4,5-b]pyridin-1-yl)-3-{[2-(trifluoromethyl)benzyl]oxy}thiophene-2-carboxamide], the IC50 is reported as 100 to 1000 nM.
With `COc1cc2ncn(-c3cc(OCc4ccccc4C(F)(F)F)c(C(N)=O)s3)c2nc1OC` [Example 21B, 5-(5,6-Dimethoxy-3H-imidazo[4,5-b]pyridin-3-yl)-3-{[2-(trifluoromethyl)benzyl]oxy}thiophene-2-carboxamide] the IC50 was 10 to 100 nM.
`COc1ccc2ncn(-c3cc(OCc4ccccc4C(F)(F)F)c(C(N)=O)s3)c2n1` [Example 22, 5-(5-methoxy-3H-imidazo[4,5-b]pyridin-3-yl)-3-{[2-(trifluoromethyl)benzyl]oxy}thiophene-2-carboxamide] gave an IC50 of under 10 nM.
Compound `COc1ccc2c(ncn2-c2cc(OCc3ccccc3C(F)(F)F)c(C(N)=O)s2)n1` [Example 23, 5-(5-methoxy-1H-imidazo[4,5-b]pyridin-1-yl)-3-{[2-(trifluoromethyl)benzyl]oxy}thiophene-2-carboxamide] has an IC50 of 10 to 100 nM.
`C[C@@H](Oc1cc(-n2cnc3cnc(CN4CCN(C)CC4)cc32)sc1C(N)=O)c1ccccc1C(F)(F)F` [Example 24, 5-{6-[(4-methylpiperazin-1-yl)methyl]-1H-imidazo[4,5-c]pyridin-1-yl}-3-{(1R)-1-[2-(trifluoromethyl)phenyl]ethoxy}thiophene-2-carboxamide] gave an IC50 of under 10 nM.
`C[C@@H](Oc1cc(-n2cnc3cnc(CO)cc32)sc1C(N)=O)c1ccccc1C(F)(F)F` [Example 25, 5-[6-(hydroxymethyl)-1H-imidazo[4,5-c]pyridin-1-yl]-3-{(1R)-1-[2-(trifluoromethyl)phenyl]ethoxy}thiophene-2-carboxamide] was tested, and the IC50 was under 10 nM.
`NC(=O)c1sc(-n2cnc3ccncc32)cc1OCc1ccc(C(F)(F)F)cc1` [Example 28, 5-(3H-imidazo[4,5-c]pyridin-3-yl)-3-{[4-(trifluoromethyl)benzyl]oxy}thiophene-2-carboxamide] was tested, and the IC50 was 100 to 1000 nM.
